Assay [1] concerns the target T1, PDGFβ (Homo sapiens, UniProt P09619). The assay can be described thus: PDGFβ enzyme assay. Format: biochemical. To be noted: Table IV, amide or urea linker.
Assay [2] has as its target T1, PDGFβ. The experiment in a line: PDGF stimulated Ca2+ signal in vitro (FLIPR). Further details: host or cells: NHDF-Ad (normal human dermal fibroblasts). The class given is cell-based. As to conditions: NHDF-Ad, PDGF stimulation 10 ng/mL; Table IV, amide or urea linker; read-out: PDGFβ Cellular IC50.
In assay [3] the target is T2, human VEGF receptor (VEGFR-2) (Homo sapiens, UniProt P35968).
T2 construct: The cytoplasmic domain of the human VEGF receptor (VEGFR-2) was expressed; His; made in house; host or cells: insect cells (baculovirus)
T2 sequence (P35968 786-1356 limits assumed): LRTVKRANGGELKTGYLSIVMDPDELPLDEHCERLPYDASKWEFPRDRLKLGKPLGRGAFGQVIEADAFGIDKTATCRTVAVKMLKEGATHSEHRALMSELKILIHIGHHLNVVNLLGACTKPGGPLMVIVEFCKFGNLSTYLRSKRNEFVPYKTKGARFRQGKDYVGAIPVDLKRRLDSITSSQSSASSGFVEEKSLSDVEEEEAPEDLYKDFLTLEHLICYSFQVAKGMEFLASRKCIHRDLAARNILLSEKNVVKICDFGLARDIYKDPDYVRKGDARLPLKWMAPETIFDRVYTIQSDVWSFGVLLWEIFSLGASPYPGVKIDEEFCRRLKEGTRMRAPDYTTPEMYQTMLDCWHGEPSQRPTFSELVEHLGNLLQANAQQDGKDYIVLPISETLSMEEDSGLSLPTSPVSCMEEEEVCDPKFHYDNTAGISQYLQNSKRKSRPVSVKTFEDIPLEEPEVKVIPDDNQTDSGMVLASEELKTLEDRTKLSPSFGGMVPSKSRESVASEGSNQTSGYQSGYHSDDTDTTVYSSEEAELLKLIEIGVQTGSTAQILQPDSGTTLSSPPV
The assay can be described thus: VEGFR2 kinase assay. The class given is biochemical. As to conditions: His-VEGFR-2 cytoplasmic domain, 3.6 μM ATP; Table IV, amide or urea linker; read-out: VEGFR2 Enzyme IC50. Summed up:
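His-tagged VEGFR-2 cytoplasmic domain from baculovirus-infected insect cells phosphorylating plate-bound poly-Glu-Tyr (4:1). IC50 from blank-subtracted optical density versus compound concentration.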

A further assay concerns the target VEGFR1 (Homo sapiens, UniProt P17948). The assay can be described thus: VEGFR1 enzyme assay. Format: biochemical. To be noted: Table IV, amide or urea linker.
The target in another assay is VEGFR2 (Homo sapiens, UniProt P35968). The experiment in a line: VEGF stimulated Ca++ signal in vitro (FLIPR).
Sequence of VEGFR2 (P35968 20-1356): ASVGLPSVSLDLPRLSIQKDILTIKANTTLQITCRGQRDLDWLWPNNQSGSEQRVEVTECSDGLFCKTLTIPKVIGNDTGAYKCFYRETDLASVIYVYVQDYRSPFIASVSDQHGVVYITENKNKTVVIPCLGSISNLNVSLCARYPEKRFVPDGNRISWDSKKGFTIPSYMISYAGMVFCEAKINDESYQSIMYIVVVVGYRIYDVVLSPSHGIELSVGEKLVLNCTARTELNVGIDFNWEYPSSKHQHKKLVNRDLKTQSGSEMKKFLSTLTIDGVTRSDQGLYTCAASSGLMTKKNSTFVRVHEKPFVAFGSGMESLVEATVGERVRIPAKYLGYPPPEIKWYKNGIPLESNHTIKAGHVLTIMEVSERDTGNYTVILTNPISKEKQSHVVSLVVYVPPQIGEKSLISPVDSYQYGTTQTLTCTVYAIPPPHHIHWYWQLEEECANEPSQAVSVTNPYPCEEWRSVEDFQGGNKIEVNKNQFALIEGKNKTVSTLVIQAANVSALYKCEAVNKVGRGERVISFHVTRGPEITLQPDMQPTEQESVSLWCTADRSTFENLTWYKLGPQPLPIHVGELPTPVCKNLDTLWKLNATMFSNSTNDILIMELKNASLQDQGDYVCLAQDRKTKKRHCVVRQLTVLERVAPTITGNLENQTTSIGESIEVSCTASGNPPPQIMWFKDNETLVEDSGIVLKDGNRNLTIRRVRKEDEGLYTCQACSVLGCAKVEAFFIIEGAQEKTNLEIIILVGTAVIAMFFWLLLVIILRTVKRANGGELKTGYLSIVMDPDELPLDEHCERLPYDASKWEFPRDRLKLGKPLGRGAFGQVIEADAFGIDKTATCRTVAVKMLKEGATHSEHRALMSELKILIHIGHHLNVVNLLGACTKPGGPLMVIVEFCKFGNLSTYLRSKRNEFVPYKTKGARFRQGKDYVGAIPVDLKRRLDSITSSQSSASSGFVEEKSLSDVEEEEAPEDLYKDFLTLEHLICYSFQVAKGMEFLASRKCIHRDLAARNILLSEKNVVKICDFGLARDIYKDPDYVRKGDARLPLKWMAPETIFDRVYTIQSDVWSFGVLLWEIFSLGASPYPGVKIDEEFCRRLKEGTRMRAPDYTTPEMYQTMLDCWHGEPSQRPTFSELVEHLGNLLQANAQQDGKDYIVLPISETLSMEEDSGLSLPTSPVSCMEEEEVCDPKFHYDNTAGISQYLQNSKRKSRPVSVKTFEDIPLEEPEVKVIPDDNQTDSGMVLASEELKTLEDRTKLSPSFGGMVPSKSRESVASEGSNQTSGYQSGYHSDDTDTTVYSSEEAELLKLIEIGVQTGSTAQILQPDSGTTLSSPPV

SMILES strings stand for the structures.

Sequence of VEGFR1 (P17948 27-1338, species assumed): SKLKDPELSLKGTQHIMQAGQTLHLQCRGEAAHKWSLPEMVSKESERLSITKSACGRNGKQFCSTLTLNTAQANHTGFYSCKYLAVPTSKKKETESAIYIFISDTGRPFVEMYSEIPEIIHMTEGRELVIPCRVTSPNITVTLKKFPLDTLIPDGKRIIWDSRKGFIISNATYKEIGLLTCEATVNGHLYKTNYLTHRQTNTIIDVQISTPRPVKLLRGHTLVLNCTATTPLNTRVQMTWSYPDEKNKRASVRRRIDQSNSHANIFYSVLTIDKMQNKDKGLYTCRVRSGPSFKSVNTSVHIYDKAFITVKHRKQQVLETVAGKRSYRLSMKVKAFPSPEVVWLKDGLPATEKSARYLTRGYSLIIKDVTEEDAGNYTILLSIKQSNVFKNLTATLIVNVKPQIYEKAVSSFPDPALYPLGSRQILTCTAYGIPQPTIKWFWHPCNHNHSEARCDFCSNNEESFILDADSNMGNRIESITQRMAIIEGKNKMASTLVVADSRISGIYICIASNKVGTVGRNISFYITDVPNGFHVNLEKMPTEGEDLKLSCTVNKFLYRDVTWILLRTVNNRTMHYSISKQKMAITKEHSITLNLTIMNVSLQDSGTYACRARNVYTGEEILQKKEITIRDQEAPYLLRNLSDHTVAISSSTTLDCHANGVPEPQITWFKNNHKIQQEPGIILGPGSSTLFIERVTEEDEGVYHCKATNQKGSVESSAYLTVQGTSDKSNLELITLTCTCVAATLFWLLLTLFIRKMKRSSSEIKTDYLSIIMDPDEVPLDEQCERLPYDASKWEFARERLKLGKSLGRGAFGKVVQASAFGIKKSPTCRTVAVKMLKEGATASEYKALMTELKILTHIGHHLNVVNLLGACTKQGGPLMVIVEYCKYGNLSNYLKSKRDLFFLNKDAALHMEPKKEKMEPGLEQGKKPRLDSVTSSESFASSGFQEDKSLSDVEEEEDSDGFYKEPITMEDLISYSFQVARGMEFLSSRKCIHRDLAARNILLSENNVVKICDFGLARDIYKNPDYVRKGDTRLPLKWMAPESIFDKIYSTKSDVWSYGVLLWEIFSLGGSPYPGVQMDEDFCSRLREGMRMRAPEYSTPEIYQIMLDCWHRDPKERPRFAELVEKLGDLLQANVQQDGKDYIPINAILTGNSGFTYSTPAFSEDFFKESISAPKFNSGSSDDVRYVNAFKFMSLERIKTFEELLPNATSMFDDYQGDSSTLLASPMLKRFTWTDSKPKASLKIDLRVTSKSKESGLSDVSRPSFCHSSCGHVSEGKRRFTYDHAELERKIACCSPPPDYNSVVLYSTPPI
T1 sequence (P09619 33-1106): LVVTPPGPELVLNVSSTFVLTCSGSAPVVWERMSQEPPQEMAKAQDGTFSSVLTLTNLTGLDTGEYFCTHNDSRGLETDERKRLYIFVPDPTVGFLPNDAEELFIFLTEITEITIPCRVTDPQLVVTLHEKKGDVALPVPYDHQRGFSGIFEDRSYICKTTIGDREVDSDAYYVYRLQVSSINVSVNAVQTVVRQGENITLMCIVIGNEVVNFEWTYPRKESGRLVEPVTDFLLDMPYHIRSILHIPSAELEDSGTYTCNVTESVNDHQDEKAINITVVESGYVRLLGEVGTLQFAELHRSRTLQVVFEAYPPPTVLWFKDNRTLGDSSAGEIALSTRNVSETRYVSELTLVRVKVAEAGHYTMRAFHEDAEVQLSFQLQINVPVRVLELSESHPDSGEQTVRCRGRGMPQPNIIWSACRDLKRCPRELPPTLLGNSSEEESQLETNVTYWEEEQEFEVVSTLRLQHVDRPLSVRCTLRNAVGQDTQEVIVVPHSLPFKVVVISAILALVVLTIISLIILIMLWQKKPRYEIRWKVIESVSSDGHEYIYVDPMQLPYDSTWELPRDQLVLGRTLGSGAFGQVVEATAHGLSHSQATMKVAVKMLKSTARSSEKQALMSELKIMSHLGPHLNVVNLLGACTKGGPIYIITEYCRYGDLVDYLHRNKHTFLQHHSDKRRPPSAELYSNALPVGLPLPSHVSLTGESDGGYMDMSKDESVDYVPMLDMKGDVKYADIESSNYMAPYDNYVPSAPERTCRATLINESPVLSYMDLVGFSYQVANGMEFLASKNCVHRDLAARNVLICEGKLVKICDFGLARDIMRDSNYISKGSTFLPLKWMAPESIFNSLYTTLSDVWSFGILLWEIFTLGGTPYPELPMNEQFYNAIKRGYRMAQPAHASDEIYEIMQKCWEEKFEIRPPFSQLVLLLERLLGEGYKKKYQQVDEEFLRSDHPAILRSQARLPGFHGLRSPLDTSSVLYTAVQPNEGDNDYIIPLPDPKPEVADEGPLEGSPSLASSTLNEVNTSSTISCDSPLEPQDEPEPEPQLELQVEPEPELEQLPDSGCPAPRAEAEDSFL

As to `COC(=O)CCNC(=O)c1c[nH]c(-c2cc(Oc3ccc(NC(=O)Nc4cc(C)ccc4F)c(F)c3)ccn2)c1` [Example 175, methyl 3-{[(5-{4-[3-fluoro-4-({[(2-fluoro-5-methylphenyl)amino]carbonyl}amino)phenoxy]pyridin-2-yl}-1H-pyrrol-3-yl)carbonyl]amino}propanoate], the results for the IC50 on PDGFβ [1] and on PDGFβ [2] were 34 nM and 32 nM, respectively.
For `COC(=O)CCCNC(=O)c1c[nH]c(-c2cc(Oc3ccc(NC(=O)Nc4cc(C)ccc4F)cc3)ccn2)c1` [Example 176, methyl 4-{[(5-{4-[4-({[(2-fluoro-5-methylphenyl)amino]carbonyl}amino)phenoxy]pyridin-2-yl}-1H-pyrrol-3-yl)carbonyl]amino}butanoate], the IC50 was 38 nM on PDGFβ [1] and 78 nM on PDGFβ [2].
As for `Cc1ccc(F)c(NC(=O)Nc2ccc(Oc3ccnc(-c4cc(C(=O)NCCNC(=O)OC(C)(C)C)c[nH]4)c3)cc2F)c1` [Example 216, tert-butyl (2-{[(5-{4-[3-fluoro-4-({[(2-fluoro-5-methylphenyl)amino]carbonyl}amino)phenoxy]pyridin-2-yl}-1H-pyrrol-3-yl)carbonyl]amino}ethyl)carbamate], the half-inhibitory concentration (IC50) in assay [3] was found to be 17 nM; on VEGFR1, 16 nM; at PDGFβ [1] it was 59 nM; at PDGFβ [2], 214 nM.
Consider `COC(=O)CC[C@H](NC(=O)c1c[nH]c(-c2cc(Oc3ccc(NC(=O)Nc4cccc(C)c4)c(F)c3)ccn2)c1)C(=O)OC` [Example 230, dimethyl 2-{[(5-{4-[3-fluoro-4-({[(3-methylphenyl)amino]carbonyl}amino)phenoxy]pyridin-2-yl}-1H-pyrrol-3-yl)carbonyl]amino}pentanedioate], for which the IC50 in assay [3] amounted to 6 nM; at VEGFR1, 9 nM; at PDGFβ [1] it was 12 nM; against VEGFR2 it was 2 nM; on PDGFβ [2], 31 nM.
Take `CCOC(=O)CCNC(=O)c1c[nH]c(-c2cc(Oc3ccc(NC(=O)Nc4cc(C)ccc4F)c(F)c3)ccn2)c1` [Example 231, ethyl 3-{[(5-{4-[3-fluoro-4-({[(2-fluoro-5-methylphenyl)amino]carbonyl}amino)phenoxy]pyridin-2-yl}-1H-pyrrol-3-yl)carbonyl]amino}propanoate]: the 50% inhibitory concentration (IC50) on PDGFβ [1] was 43 nM; on PDGFβ [2], 32 nM.
For `CCNC(=O)[C@H](CCC(=O)OC)NC(=O)c1c[nH]c(-c2cc(Oc3cc(C(=O)Nc4cc(C)ccc4F)ccc3F)ccn2)c1` [Example 261, methyl 5-(ethylamino)-4-[({5-[4-(2-fluoro-5-{[(2-fluoro-5-methylphenyl)amino]carbonyl}phenoxy)pyridin-2-yl]-1H-pyrrol-3-yl}carbonyl)amino]-5-oxopentanoate], the IC50 was found to be 12 nM in assay [3], 100 nM against PDGFβ [1] and 108 nM at PDGFβ [2].
For the molecule `Cc1ccc(F)c(NC(=O)Nc2ccc(Oc3ccnc(-c4cc(C(=O)OCCCN5CCOCC5)c[nH]4)c3)cc2)c1` [Example 274, 3-morpholin-4-ylpropyl 5-{4-[4-({[(2-fluoro-5-methylphenyl)amino]carbonyl}amino)phenoxy]pyridin-2-yl}-1H-pyrrole-3-carboxylate], the IC50 was determined as 11 nM in assay [3], 16 nM against VEGFR1, 27 nM against PDGFβ [1] and 10 nM against VEGFR2.

The record behind these values is US8906944B2, “Compounds as tyrosine kinase modulators” (Allergan, Inc., priority 2009, dated 2014).
